Reference: paper PMC12589998, “Development and validation of a UHPLC-QqQ-MS/MS method for simultaneous determination of fifteen major components from Oroxyli seed extract in rat plasma and its application in the pharmacokinetic study” (Frontiers in Pharmacology, 2025)
Entries after “also recorded” stand apart in the source; their conditions may differ. Where two headings read alike, the source gives them in different places.

What was measured:
[1] = Pharmacokinetic study in rats after oral administration of OS extract (UHPLC-QqQ-MS/MS of plasma); type: in vivo, rat; details: for concentration at 0.5 h: SD
Description: The UHPLC-QqQ-MS/MS system consisted of a 1290 UHPLC and a 6470 mass spectrometer (Agilent Technologies). Chromatographic separation was realized on utilizing an ACQUITY UPLC BEH C18 column (2.1 × 100 mm, 1.7 μm) maintained at 35 °C. The mobile phase consisting of 0.1% formic acid in water (A) and acetonitrile (B) was utilized with the elution program set at 0 min–1 min, 5% B–30% B; 1 min–4 min, 30% B– 50% B; 4 min–8 min, and 50% B–90% B. The injection volume was 5 μL, and the flow rate was 0.3 mL/min. The mass spectrometry parameters in the negative ion mode, gas temperature, flow rate, and nebulizer pressure were 300 °C, 7 L/min, and 35 psi, respectively. The mass spectra properties of the 15 analytes and the IS are illustrated in Table 1.
To 100 μL of the plasma sample, 20 μL of methanol, 20 μL of IS solution (methylparaben, 1 μg/mL), and 5 μL of formic acid were added and vortexed for a duration of 2 min. Subsequently, the mixture underwent extraction with 800 μL of acetonitrile for 3 min. Following 10 min of centrifugation at 12,000 g, the supernatant was collected and evaporated to dryness under N2 to obtain the residue. Finally, the residue was reconstituted in 50% methanol (100 μL) and utilized for analysis.
Before initiating the study, six male SD rats underwent a 12-h fasting period, during which they were granted unrestricted access to water. Then, the rats were administered an oral dose of 3 g/kg of the OS extract, which had been dissolved in 0.5% CMC-Na aqueous solution. Blood samples, approximately 200 μL each, were collected at various time points: before administration and at 0.03, 0.08, 0.17, 0.25, 0.5, 0.75, 1, 2, 4, 6, 8, 10, 12, 24, 36, and 48 h post-administration. Following 10 min of centrifugation at 6,000 g, the resultant samples were stored at −80 °C.
The developed method was effectively applied to study the pharmacokinetics in rats following oral administration of the OS extract. […] This was likely due to their low concentrations in the OS extract. Ultimately, nine components (chrysin, chrysin-7-O-β-D-glucuronide, baicalin, baicalein, oroxin A, oroxin B, oroxylin A, oroxylin A-7-O-β-D-glucuronide, and scutellarein) were successfully fitted with pharmacokinetic parameters. The average plasma concentration–time profiles of these substances are depicted in Figure 3. […] All data were presented as the mean ± standard deviation (Mean ± SD).

[2] = Stability of the analytes in rat plasma samples under storage conditions; type: physicochemical; details: n = 6
Description: The bioanalytical method validation was evaluated for specificity, linearity, sensitivity, precision and accuracy, recovery, matrix effect, and stability to ensure compliance with the U.S. Food and Drug Administration (FDA) guidance on precise quantitative analysis ([Center for Drug Evaluation and Research of the U.S., 2018]). The assessment of specificity was conducted by comparing the chromatograms obtained from blank plasma, blank plasma spiked with the target components, and samples gathered following the oral administration of OS extract. Calibration curves were constructed by plotting the ratio for the peak area of the analyte to IS versus the concentration, with 1/x^2 serving as the weighting factor. The lower limit of quantification (LLOQ) was defined as the concentration at which a signal to noise ratio of […] 10 was achievable. The evaluation of precision and accuracy involved the analysis of six QC samples, both within a single day and over 3 consecutive days. Accuracy was expressed as the relative error (RE), whereas precision was gauged via relative standard deviation (RSD). Extraction recovery was ascertained by juxtaposing the responses of analytes in extracted samples against those in samples that were spiked post-extraction. The matrix effect was scrutinized by determining the ratio of the responses of the analytes in post-extraction spiked samples to those in the mixed standard solution. The stability of the analytes in plasma samples was explored under diverse conditions: encompassing a 12-h period in an autosampler, a 4-h interval at room temperature, three cycles of freezing–thawing, and a 7-day duration at −80 °C.
The retention times of the analyte peaks were consistent with those in the spiked samples. […] The LLOQs for chrysin, chrysin-7-O-β-D-glucuronide, hispidulin, wogonoside, quercetin, quercetin-7-O-β-D-glucoside, baicalin, baicalein, acacetin, oroxin A, oroxin B, oroxylin A, oroxylin A-7-O-β-D-glucuronide, apigenin, and scutellarein were 1.0, 2.0, 1.0, 0.3, 1.0, 0.1, 9.0, 6.0, 0.3, 6.0, 4.0, 1.0, 2.0, 0.5, and 0.3 ng/mL, respectively. In Supplementary Table S2, the RE for accuracy is between −13.77% and 12.55%, and the RSD for precision is below 14.55% (both intra- and inter-day). […] The matrix effect varied from 60.15% to 115.53%, with RSD values below 10.54%. In Supplementary Table S4, the RSD values for stability of the analytes are found to be lower than 13.98%, meaning that these components were stable under the following conditions: encompassing a 12-h period in an autosampler, a 4-h interval at room temperature, three cycles of freezing and thawing, and a 7-day duration at −80 °C.

[3] = male, 3 g/kg, rat plasma collected 0.5 h after oral administration of the OS extract, read-out: Concentration printed in MRM chromatogram of plasma sample (Figure 2C)
[4] = rat plasma after oral OS extract
[5] = spiked concentration 1600 ng/mL

Compound | Measured, -80°C for 7 days ([2]; spiked concentration 2 ng/mL) [ng/mL] | Measured, Autosampler for 12 h ([2]; spiked concentration 2 ng/mL) [ng/mL] | Measured, Room temperature for 4 h ([2]; spiked concentration 2 ng/mL) [ng/mL] | Measured, Three freeze-thaw cycles ([2]; spiked concentration 2 ng/mL) [ng/mL] | Measured, -80°C for 7 days ([2]; spiked concentration 20 ng/mL) [ng/mL] | Measured, Autosampler for 12 h ([2]; spiked concentration 20 ng/mL) [ng/mL] | Measured, Room temperature for 4 h ([2]; spiked concentration 20 ng/mL) [ng/mL] | Measured, Three freeze-thaw cycles ([2]; spiked concentration 20 ng/mL) [ng/mL] | Measured, -80°C for 7 days ([2]; spiked concentration 320 ng/mL) [ng/mL] | Measured, Autosampler for 12 h ([2]; spiked concentration 320 ng/mL) [ng/mL] | Measured, Room temperature for 4 h ([2]; spiked concentration 320 ng/mL) [ng/mL] | Measured, Three freeze-thaw cycles ([2]; spiked concentration 320 ng/mL) [ng/mL] | concentration at 0.5 h [1, 3] [ng/mL] | also measured
O=c1cc(-c2ccc(O)cc2)oc2cc(O)cc(O)c12 [Apigenin, apigenin] | 1.93 ± 0.09 | 2.00 ± 0.16 | 2.23 ± 0.11 | 2.07 ± 0.13 | 20.16 ± 2.35 | 20.39 ± 1.55 | 18.37 ± 0.87 | 18.24 ± 1.16 | 288.58 ± 21.30 | 316.15 ± 18.09 | 310.13 ± 19.51 | 306.45 ± 18.15 | – | concentration at 0.5 h ([1]; male, rat, in vivo, po): 45 ng/mL; Plasma levels ([1]; rat, in vivo, po): too weak to obtain comprehensive pharmacokinetic curves
O=c1c(O)c(-c2ccc(O)c(O)c2)oc2cc(O[C@@H]3O[C@H](CO)[C@@H](O)[C@H](O)[C@H]3O)cc(O)c12 [Quercetin-7-O-β-D-glucoside, quercetin-7-O-β-D-glucoside] | 1.96 ± 0.23 | 2.10 ± 0.15 | 1.98 ± 0.24 | 2.03 ± 0.10 | 19.58 ± 0.68 | 19.79 ± 2.27 | 20.28 ± 1.69 | 17.78 ± 1.17 | 296.81 ± 20.76 | 320.27 ± 20.06 | 315.81 ± 25.77 | 326.98 ± 27.26 | 8 | Plasma levels [1, 4]: too weak to obtain comprehensive pharmacokinetic curves
COc1c(O[C@@H]2O[C@H](C(=O)O)[C@@H](O)[C@H](O)[C@H]2O)cc2oc(-c3ccccc3)cc(=O)c2c1O [Oroxylin A-7-O-β-D-glucuronide, oroxylin A-7-O-β-D-glucuronide] | – | – | – | – | – | – | – | – | – | – | – | – | 61 | AUC(0-t) ([1]; male, rat plasma, oral 3 g/kg OS extract, n = 6, mean ± SD, read-out: AUC(0-t)): 11400 ng·h/mL; AUC(0-inf) ([1]; male, rat plasma, oral 3 g/kg OS extract, n = 6, mean ± SD, read-out: AUC(0-∞)): 11600 ng·h/mL; Cmax ([1]; male, rat plasma, oral 3 g/kg OS extract, n = 6, mean ± SD, read-out: Cmax): 912 ± 350 ng/mL; half-life ([1]; male, rat plasma, oral 3 g/kg OS extract, n = 6, mean ± SD, read-out: T1/2 (converted)): 433 ± 62.4 min; Tmax ([1]; male, rat plasma, oral 3 g/kg OS extract, n = 6, mean ± SD, read-out: Tmax): 9.6 ± 1.67 h; Shape of plasma concentration-time curve [1, 4]: significant bimodal phenomena; also recorded: clear bimodal phenomena; Measured, -80°C for 7 days ([2]; spiked concentration 10 ng/mL): 9.25 ± 0.47 ng/mL; Measured, Autosampler for 12 h ([2]; spiked concentration 10 ng/mL): 9.44 ± 1.32 ng/mL; Measured, Room temperature for 4 h ([2]; spiked concentration 10 ng/mL): 11.03 ± 0.43 ng/mL; Measured, Three freeze-thaw cycles ([2]; spiked concentration 10 ng/mL): 9.21 ± 0.83 ng/mL; Measured, -80°C for 7 days ([2]; spiked concentration 100 ng/mL): 95.03 ± 7.93 ng/mL; Measured, Autosampler for 12 h ([2]; spiked concentration 100 ng/mL): 98.52 ± 5.58 ng/mL; Measured, Room temperature for 4 h ([2]; spiked concentration 100 ng/mL): 108.86 ± 4.87 ng/mL; Measured, Three freeze-thaw cycles ([2]; spiked concentration 100 ng/mL): 90.02 ± 5.94 ng/mL; Measured, -80°C for 7 days [2, 5]: 1626.95 ± 164.45 ng/mL; Measured, Autosampler for 12 h [2, 5]: 1793.11 ± 46.98 ng/mL; Measured, Room temperature for 4 h [2, 5]: 1799.31 ± 27.98 ng/mL; Measured, Three freeze-thaw cycles [2, 5]: 1550.12 ± 77.94 ng/mL
